Test results: EP0770681A2, “T cell epitopes of the major allergens from ambrosia artemisiifolia” (IMMULOGIC PHARMACEUTICAL CORPORATION, priority 1992, dated 1993)
No end group written: not given here.

Key:
[1] = test system: Amb a I.1 stimulated T cell line plus APC; assay: assessment of peptide toxicity in Amb a I.1 primed secondary T cell culture; type: cell-based, human
Method: This could reflect a potential toxic effect of the peptides in the T cell assays. To investigate this possibility, an assay was conducted to determine the ability of the peptides to inhibit T cell proliferation. Inhibition was defined as proliferation of a T cell line in response to the peptide which was less than half the proliferation of media control T cell lines plus autologous EBV transformed antigen presenting cells. […]

[2] = test system: basophils present in heparinized whole blood; assay: histamine release assay; type: cell-based, human; conditions: blood of ragweed-allergic patient #1273, similar in seven other patients; Amb a I.1 from 10 µg/ml in 10-fold dilutions, peptides 50 µg/ml to 0.08 µg/ml
Method: The histamine release assay used for these studies is based on the detection of an acylated derivative of histamine using a specific monoclonal antibody (Morel, A.M. and Delaage, M.A. (1988) J. Allergy Clin. Immunol. 82:646-654). The assay was performed in two steps: 1) the release of histamine from basophils present in heparinized whole blood in the presence of different concentrations of protein or peptide; and 2) the assay of histamine present in the supernatants of the release reactions following cell removal by centrifugation. The reagents for this second step are available commercially as a competitive radioimmunoassay from AMAC Inc. (Westbrook, ME).
Heparinized whole blood was drawn from ragweed allergic patients. […] The tubes were then centrifuged in a microfuge at 1500 RPM for 3 minutes and the supernatants were carefully removed and analyzed or stored at -20°C for later analysis. […]
For the competition radioimmunoassay, a 50 µl aliquot of each release supernatant was mixed with 150 µl of histamine release buffer (supplied with the kit from AMAC). […] The solutions were aspirated from the tubes and the radioactivity bound to the tube was measured on a gamma counter (Cobra 5005, Beckman, Inc.) for two minutes per tube. […]
Six or more 10-fold dilutions of Amb a I.1 starting at 10 µg/ml (approximately 0.66 µM) were analyzed. […]

peptide solubility = type: physicochemical; conditions: compared among Amb 2-18.1, Amb2-19.1, Amb2-20.1 and Amb2-21.1
Source text: Peptides Amb 2-18.1 (SEQ ID NO:126), Amb2-19.1 (SEQ ID NO:127), Amb2-20.1 (SEQ ID NO:128) and Amb2-21.1 (SEQ ID NO:129) correspond to different lengths of the original peptide which were synthesized (including the serine substitution at position 212) and analyzed to determine solubility. […] Thus, substitutions and/or amino acid additions to this peptide were made in order to further increase the solubility while maintaining T cell reactivity. For example, in peptides Amb2-22.1 (SEQ ID NO:130) and Amb2-23.1 (SEQ ID NO:131) isoleucine at position 201 was substituted with glutamic acid (Amb2-22.1) or lysine (Amb2-23.1) to lower the pI of the resulting peptide and avoid precipitation of the peptide at physiological pH. Similarly, the following peptides were also synthesized with various substitutions or additions designed to decrease the pI and increase the hydrophilicity of the peptide, each is shown in Figure 25: Amb2-26.1 (SEQ ID NO:132); Amb2-28.1 (SEQ ID NO:133); Amb2-30.1 (SEQ ID NO:134); Amb2-32.1 (SEQ ID NO:135); Amb2-33.1 (SEQ ID NO:136); Amb2-34.1 (SEQ ID NO:137); Amb2-35.1 (SEQ ID NO:138); Amb2-36.1 (SEQ ID NO:139); Amb2-37.1 (SEQ ID NO:140); and Amb2-38.1 (SEQ ID NO:141).

Row | Sequence | # patients ([1]; patients with toxicity (proliferation less than half of media control) / patients tested) | (%)patients ([1]; percent of patients with toxicity (proliferation less than half of media control)) [%] | both ([1]; toxicity at 5 µg/ml and 50 µg/ml peptide, fraction of patients with toxicity) | low dose only ([1]; toxicity only at 5 µg/ml peptide, fraction of patients with toxicity) | high dose only ([1]; toxicity only at 50 µg/ml peptide, fraction of patients with toxicity) | histamine release [2] | solubility (peptide solubility)
1 | KGTVGGKDGDIYTVTSELDDDVAN [AMB 1-2.1] | 3/46 | 7 | 0 | 2/3 | 1/3 | no discernible histamine release | 
2 | SISGSSQIWIDHSSLSKS [AMB2-19.1] |  |  |  |  |  |  | most soluble
